Where “and” joins values, the source holds several entries; their conditions need not be identical. Equal entries are not always repeated. Inconclusive results and toxic doses are left out. Rule for the calls: active = survival T/C of 150% or more; inactive = T/C below 125% in these data.
System: P388 leukemia ip, CD2F1 mice, survival T/C
Assay: NCI In Vivo Anticancer Drug Screen. Data for tumor model P388 Leukemia (intraperitoneal) in CD2F1 (CDF1) mice
Conditions: endpoint: median survival time, higher = longer survival
Summary of the method: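 Mice carrying the transplanted tumor received test compound or vehicle. Survival was recorded in each group, and the value is the treated-group measurement divided by that of the vehicle-treated control group.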

[1] = dose: 30.0 mg/kg/injection, schedule: Q01DX005 (ip), vehicle: saline with Tween-80
[2] = dose: 50.0 mg/kg/injection, schedule: Q01DX009 (ip), vehicle: saline
[3] = dose: 100.0 mg/kg/injection, schedule: Q01DX009 (ip), vehicle: saline
[4] = dose: 50.0 mg/kg/injection, schedule: Q01DX009 (ip), vehicle: saline with Tween-80
[5] = dose: 100.0 mg/kg/injection, schedule: Q01DX009 (ip), vehicle: saline with Tween-80
[6] = dose: 200.0 mg/kg/injection, schedule: Q01DX009 (ip), vehicle: saline with Tween-80
[7] = dose: 50.0 mg/kg/injection, schedule: Q01DX005 (ip), vehicle: Klucel (hydroxypropylcellulose) (HPC)
[8] = dose: 100.0 mg/kg/injection, schedule: Q01DX005 (ip), vehicle: Klucel (hydroxypropylcellulose) (HPC)
[9] = dose: 200.0 mg/kg/injection, schedule: Q01DX005 (ip), vehicle: Klucel (hydroxypropylcellulose) (HPC)
[10] = dose: 200.0 mg/kg/injection, schedule: Q01DX009 (ip), vehicle: saline
[11] = dose: 60.0 mg/kg/injection, schedule: Q01DX005 (ip), vehicle: saline with Tween-80
[12] = dose: 240.0 mg/kg/injection, schedule: Q01DX005 (ip), vehicle: saline with Tween-80
[13] = dose: 120.0 mg/kg/injection, schedule: Q01DX005 (ip), vehicle: saline with Tween-80
[14] = dose: 400.0 mg/kg/injection, schedule: Q01DX009 (ip), vehicle: saline with Tween-80
[15] = dose: 100.0 mg/kg/injection, schedule: Q04DX003 (ip), vehicle: saline with Tween-80
[16] = dose: 50.0 mg/kg/injection, schedule: Q01DX005 (ip), vehicle: saline with Tween-80
[17] = dose: 100.0 mg/kg/injection, schedule: Q01DX005 (ip), vehicle: saline with Tween-80
[18] = dose: 25.0 mg/kg/injection, schedule: Q01DX009 (ip), vehicle: saline with Tween-80
[19] = dose: 6.25 mg/kg/injection, schedule: Q01DX009 (ip), vehicle: saline with Tween-80
[20] = dose: 12.5 mg/kg/injection, schedule: Q01DX009 (ip), vehicle: saline with Tween-80

Measured: T/C

COc1cc(/C=N/N2CC(=O)N(c3cccc(Cl)c3)CC2=O)cc(OC)c1
inactive: dose: 7.5 mg/kg/injection, schedule: Q01DX005 (ip), vehicle: saline with Tween-80 95 % of control | dose: 15.0 mg/kg/injection, schedule: Q01DX005 (ip), vehicle: saline with Tween-80 96 % of control | [1] 94 % of control

Cc1cc(O)c2c(O)c(-c3ccc4cc(C)cc(O)c4c3O)ccc2c1
inactive: [2] 104 % of control | [3] 112 % of control

CC1=C(C)CC2(CC1)C(=O)C1(CCC(C)=C(C)C1)C2=O (stereo not given)
inactive: [4] 93 % of control | [5] 90 % of control | [6] 99 % of control

CC(C)(C)OC(=O)N(C=O)C(Cc1c[nH]c2ccccc12)C(=O)O (stereo not given)
inactive: [7] 100 % of control | [8] 103 % of control | [9] 99 % of control

O=c1oc(-c2ccc(Cl)cc2[N+](=O)[O-])nc2ccccc12
inactive: [2] 108 % of control | [3] 104 % of control | [10] 100 % of control

COC(=O)Nc1csc2c1NC(=O)CCCC2
inactive: dose: 200.0 mg/kg/injection, schedule: Q04DX003 (ip), vehicle: Klucel (hydroxypropylcellulose) (HPC) 110 % of control | dose: 400.0 mg/kg/injection, schedule: Q04DX003 (ip), vehicle: Klucel (hydroxypropylcellulose) (HPC) 105 % of control

CCOc1cc2c(NCCCN(CCO)CCO)ncnc2c(OCC)c1OCC
inactive: [2] 101 % of control | [3] 111 % of control | [10] 101 % of control

CC[n+]1c(-c2ccccc2)c2cc(N)ccc2c2ccc(N)cc21 (tested in a mixture with another compound)
inactive: dose: 5.0 mg/kg/injection, schedule: Q01DX005 (ip), vehicle: other 102 % of control | dose: 10.0 mg/kg/injection, schedule: Q01DX005 (ip), vehicle: other 112 % of control | dose: 20.0 mg/kg/injection, schedule: Q01DX005 (ip), vehicle: other 102 % of control | dose: 40.0 mg/kg/injection, schedule: Q01DX005 (ip), vehicle: other 109 % of control | dose: 80.0 mg/kg/injection, schedule: Q01DX005 (ip), vehicle: other 119 % of control

O=C1c2cccc3cccc(c23)C(=O)N1CCNCCN1C(=O)c2cccc3cccc(c23)C1=O
inactive: [11] 91 % of control | [12] 88 % of control

O=c1cnc(=O)[nH][nH]1
inactive: [11] 103 % of control | [13] 91 % of control | [12] 93 % of control

COc1ccc(/C(C)=C\C(=O)O)cc1
inactive: [5] 90 % of control | [6] 100 % of control | [14] 100 % of control

CCCCCCCCCCCCC(O)CCC1CCCCN1 (stereo not given)
inactive: dose: 50.0 mg/kg/injection, schedule: Q01DX005 (ip), vehicle: saline 102 % of control | dose: 100.0 mg/kg/injection, schedule: Q01DX005 (ip), vehicle: saline 105 % of control

Oc1ccc2ccccc2c1N=Nc1ccc(Cl)cc1
inactive: [15] 100 % of control | dose: 200.0 mg/kg/injection, schedule: Q04DX003 (ip), vehicle: saline with Tween-80 100 % of control | dose: 400.0 mg/kg/injection, schedule: Q04DX003 (ip), vehicle: saline with Tween-80 90 % of control

Nc1cc2nc3ccccc3sc-2cc1=O
inactive: [4] 112 % of control | [5] 111 % of control | [6] 113 % of control | [14] 89 % of control

Cn1c(=O)c2c(nc(Cl)n2Cc2ccc([N+](=O)[O-])cc2)n(C)c1=O
inactive: dose: 100.0 mg/kg/injection, schedule: Q04DX003 (ip), vehicle: saline 95 % of control | dose: 200.0 mg/kg/injection, schedule: Q04DX003 (ip), vehicle: saline 92 % of control | dose: 400.0 mg/kg/injection, schedule: Q04DX003 (ip), vehicle: saline 90 % of control

FC(F)(F)C1(C(F)(F)F)O[P+](c2ccccc2)(c2ccccc2)c2ccccc21
inactive: [7] 100 % of control | [8] 110 % of control | [9] 102 % of control

CC(C)(C)OC(=O)N[C@@H](CNOCc1ccccc1)C(N)=O
inactive: [16] 92 % of control | [17] 92 % of control | dose: 200.0 mg/kg/injection, schedule: Q01DX005 (ip), vehicle: saline with Tween-80 86 % of control

CCN(CC)CCC(=O)c1ccc(Cl)c2ccccc12
inactive: dose: 6.25 mg/kg/injection, schedule: Q01DX005 (ip), vehicle: saline with Tween-80 101 % of control | dose: 12.5 mg/kg/injection, schedule: Q01DX005 (ip), vehicle: saline with Tween-80 93 % of control | dose: 25.0 mg/kg/injection, schedule: Q01DX005 (ip), vehicle: saline with Tween-80 99 % of control and 104 % of control | [16] 109 % of control | [17] 93 % of control

COC(=O)Nc1c2c(nc3ccccc13)-c1ccccc1C(C)(C)C2OC (stereo not given)
inactive: [7] 99 % of control | [8] 108 % of control | [9] 104 % of control

O=Cc1coc2ccccc2c1=O
inactive: dose: 25.0 mg/kg/injection, schedule: Q01DX009 (ip), vehicle: saline 120 % of control | [2] 110 % of control | [3] 119 % of control and 120 % of control

CCOC1OCN(C2CCCCC2)CC1(C)C (stereo not given)
inactive: [4] 109 % of control | [6] 110 % of control

O=[N+]([O-])c1ccc(-c2nc(/C=N/N3CCSCC3)cs2)s1
inactive: [18] 100 % of control | [4] 95 % of control | [5] 95 % of control

O=C(OCCOCCO)c1ccccc1-c1c2cc(I)c(=O)c(I)c-2oc2c(I)c(O)c(I)cc12
inactive: dose: 60.0 mg/kg/injection, schedule: Q01DX005 (ip), vehicle: saline 94 % of control | dose: 120.0 mg/kg/injection, schedule: Q01DX005 (ip), vehicle: saline 91 % of control | dose: 240.0 mg/kg/injection, schedule: Q01DX005 (ip), vehicle: saline 92 % of control

CCO/C=N/c1c(C#N)cnn1C
inactive: dose: 50.0 mg/kg/injection, schedule: Q01DX009 (ip), vehicle: Klucel (hydroxypropylcellulose) (HPC) 100 % of control | dose: 100.0 mg/kg/injection, schedule: Q01DX009 (ip), vehicle: Klucel (hydroxypropylcellulose) (HPC) 98 % of control | dose: 200.0 mg/kg/injection, schedule: Q01DX009 (ip), vehicle: Klucel (hydroxypropylcellulose) (HPC) 106 % of control | dose: 400.0 mg/kg/injection, schedule: Q01DX009 (ip), vehicle: Klucel (hydroxypropylcellulose) (HPC) 103 % of control

CCOC(=O)/C=C(\I)C(=O)OCC
inactive: dose: 6.25 mg/kg/injection, schedule: Q01DX009 (ip), vehicle: Klucel (hydroxypropylcellulose) (HPC) 109 % of control | dose: 12.5 mg/kg/injection, schedule: Q01DX009 (ip), vehicle: Klucel (hydroxypropylcellulose) (HPC) 100 % of control | dose: 25.0 mg/kg/injection, schedule: Q01DX009 (ip), vehicle: Klucel (hydroxypropylcellulose) (HPC) 98 % of control

COC1=C(OC)C(=O)C(Sc2ccc3ccccc3c2)=CC1=O
inactive: [19] 103 % of control and 104 % of control | [20] 104 % of control | [18] 104 % of control and 119 % of control | [4] 100 % of control and 111 % of control | [5] 100 % of control

Nc1nc(SCC(=O)O)[nH]c(=O)c1NS(=O)(=O)c1ccc([N+](=O)[O-])cc1
inactive: dose: 60.0 mg/kg/injection, schedule: Q01DX005 (ip), vehicle: Klucel (hydroxypropylcellulose) (HPC) 96 % of control | dose: 120.0 mg/kg/injection, schedule: Q01DX005 (ip), vehicle: Klucel (hydroxypropylcellulose) (HPC) 98 % of control | dose: 240.0 mg/kg/injection, schedule: Q01DX005 (ip), vehicle: Klucel (hydroxypropylcellulose) (HPC) 102 % of control

CCOC(=O)c1sc(SSc2sc(C(=O)OCC)c(C)c2[N+](=O)[O-])c([N+](=O)[O-])c1C
inactive: dose: 1.56 mg/kg/injection, schedule: Q01DX009 (ip), vehicle: saline with Tween-80 94 % of control | dose: 3.12 mg/kg/injection, schedule: Q01DX009 (ip), vehicle: saline with Tween-80 101 % of control | [19] 93 % of control | [20] 88 % of control | dose: 25.0 mg/kg/injection, schedule: Q04DX003 (ip), vehicle: saline with Tween-80 102 % of control | dose: 50.0 mg/kg/injection, schedule: Q04DX003 (ip), vehicle: saline with Tween-80 93 % of control | [15] 86 % of control and 97 % of control

O=C(/C=C/c1cccc(Cl)c1)c1ccc(Cl)cc1
inactive: [1] 102 % of control | [11] 100 % of control | [13] 100 % of control | [12] 110 % of control

— PubChem BioAssay AID330 (DTP/NCI, 2004)
